The values that follow come from ChEMBL document CHEMBL1833889, “Ursolic acid is a PPAR-α agonist that regulates hepatic lipid metabolism” (Bioorg Med Chem Lett, 2011).

Assay [1] deals with T1, Peroxisome proliferator-activated receptor alpha (Homo sapiens) (UniProt Q07869).
T1 sequence (whole entry): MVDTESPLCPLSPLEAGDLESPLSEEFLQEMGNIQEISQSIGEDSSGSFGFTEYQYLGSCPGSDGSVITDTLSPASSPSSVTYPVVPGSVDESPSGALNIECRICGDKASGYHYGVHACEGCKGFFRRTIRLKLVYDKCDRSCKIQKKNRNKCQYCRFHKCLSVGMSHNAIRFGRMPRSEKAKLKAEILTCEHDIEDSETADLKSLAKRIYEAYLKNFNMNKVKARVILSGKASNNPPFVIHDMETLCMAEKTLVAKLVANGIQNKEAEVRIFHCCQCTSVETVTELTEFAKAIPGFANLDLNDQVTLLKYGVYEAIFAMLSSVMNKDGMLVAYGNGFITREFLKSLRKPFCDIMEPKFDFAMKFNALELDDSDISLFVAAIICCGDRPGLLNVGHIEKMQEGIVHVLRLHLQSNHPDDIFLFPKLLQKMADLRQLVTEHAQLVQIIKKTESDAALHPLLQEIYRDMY
The experiment in a line: (§1) Binding affinity to histidine-tagged human PPARalpha-LBD assessed as recruitment of co-activator peptide fluorescein-labeled PGC1alpha after 2 hrs by TR-FRET assay.

The target in assay [2] is T2, Peroxisome proliferator-activated receptor alpha (Homo sapiens, UniProt Q07869).
T2 sequence (Q07869 whole entry): T1 sequence (whole entry)
The assay is described as §1.

For assay [3], the target named is T1, Peroxisome proliferator-activated receptor alpha (Homo sapiens). The assay is described as follows: Binding affinity to histidine-tagged human PPARalpha-LBD by SPR analysis. A general note: In SPR one partner is held on a chip, and binding of the other changes the refractive index at the surface.
The test system of assay [4] is HepG2. The assay is described as follows: Induction of BODIPY-labeled 4,4-difluoro-5-methyl-4-bora-3a,4a-diaza-s-indacene-3-dodecanoic acid uptake in human HepG2 cells after 1 min by FACS analysis. It counts as functional, cell-based. A general note: Flow cytometry measures light scatter and fluorescence of single cells or particles in a stream.
Assay [5] addresses T1, Peroxisome proliferator-activated receptor alpha (Homo sapiens). The experiment in a line: Agonist activity at PPARalpha in human HepG2 cells assessed as up-regulation of FATP4 mRNA expression at 80 uM by quantitative PCR analysis. Format: functional, cell-based.
Assay [6] has the same target. The assay is described as follows: (§2) Agonist activity at human recombinant PPARalpha expressed in HepG2 cells co-transfected with pGL3-PPRE3-TK-luc reporter assessed as […] after 24 hrs by luciferase based transactivation assay. Format: functional, cell-based.
The target in assay [7] is T2, Peroxisome proliferator-activated receptor alpha. The description is as §2. Format: functional, cell-based.
The target of assay [8] is T1, Peroxisome proliferator-activated receptor alpha (Homo sapiens). The assay is described as follows: Agonist activity at human recombinant PPARalpha expressed in HepG2 cells co-transfected with pGL3-PPRE3-TK-luc reporter assessed as […] at 80 uM after 24 hrs by luciferase based transactivation assay. It counts as functional, cell-based.
Assay [9] shares this target. The assay is described as follows: Agonist activity at human recombinant PPARalpha expressed in HepG2 cells assessed as binding of activated PPARalpha to the PPRE at 20 uM by ELISA-based assay. It counts as cell-based. A general note: ELISA stands for enzyme-linked immunosorbent assay.
Assay [10] deals with HepG2. The experiment in a line: Hypolipidemic activity in human HepG2 cells assessed as decrease in triglyceride level at 5 uM relative to control. It counts as functional. Details: scale not given: the % may be the effect or the level left.
The test system of assay [11] is HepG2. The experiment in a line: Hypolipidemic activity in human HepG2 cells assessed as decrease in triglyceride level at 20 uM relative to control. It counts as functional. Details: scale not given: the % may be the effect or the level left.
Assay [12] concerns HepG2. The experiment in a line: Hypolipidemic activity in human HepG2 cells assessed as decrease in triglyceride level at 80 uM relative to control. Format: functional. Also noted: scale not given: the % may be the effect or the level left.
Assay [13] deals with HepG2. The experiment in a line: Hypolipidemic activity in human HepG2 cells assessed as decrease in cholesterol level at 5 uM by fluorescence-based method relative to control. It counts as functional. Also noted: scale not given: the % may be the effect or the level left.
In assay [14] the test system is HepG2. The experiment in a line: Hypolipidemic activity in human HepG2 cells assessed as decrease in cholesterol level at 20 uM by fluorescence-based method relative to control. Format: functional. Also noted: scale not given: the % may be the effect or the level left.
Assay [15] concerns HepG2. The assay is described as follows: Hypolipidemic activity in human HepG2 cells assessed as decrease in cholesterol level at 80 uM by fluorescence-based method relative to control. It counts as functional. Details: scale not given: the % may be the effect or the level left.
For assay [16], the system named is HepG2. The assay is described as follows: Induction of BODIPY-labeled 4,4-difluoro-5-methyl-4-bora-3a,4a-diaza-s-indacene-3-dodecanoic acid uptake in human HepG2 cells at 80 uM after 1 min by FACS analysis. Format: functional.
The target of assay [17] is T1, Peroxisome proliferator-activated receptor alpha (Homo sapiens). The assay is described as follows: Agonist activity at PPARalpha in human HepG2 cells assessed as up-regulation of FATP4 mRNA expression at 20 uM by quantitative PCR analysis. It counts as functional, cell-based.
The target is the same in assay [18]. The assay is described as follows: Agonist activity at PPARalpha in human HepG2 cells assessed as up-regulation of PPARalpha mRNA expression at 5 uM by quantitative PCR analysis. It counts as functional, cell-based.
Assay [19] has the same target. The assay is described as follows: Agonist activity at PPARalpha in human HepG2 cells assessed as up-regulation of PPARalpha mRNA expression at 20 uM by quantitative PCR analysis. Format: functional, cell-based.
The target is the same in assay [20]. The experiment in a line: Agonist activity at PPARalpha in human HepG2 cells assessed as up-regulation of PPARalpha mRNA expression at 80 uM by quantitative PCR analysis. Format: functional, cell-based.
Assay [21] shares this target. The assay is described as follows: Agonist activity at PPARalpha in human HepG2 cells assessed as up-regulation of acyl-CoA synthetase mRNA expression at 5 to 80 uM by quantitative PCR analysis. Format: functional, cell-based.
The target is the same in assay [22]. The experiment in a line: Agonist activity at PPARalpha in human HepG2 cells assessed as up-regulation of carnitine palmitoyl transferase mRNA expression at 80 uM by quantitative PCR analysis relative to control. It counts as functional, cell-based.
The target is the same in assay [23]. The experiment in a line: Agonist activity at PPARalpha in human HepG2 cells assessed as down-regulation of FAS mRNA expression at 80 uM by quantitative PCR analysis. Format: functional, cell-based.
Assay [24] has the same target. The experiment in a line: Agonist activity at PPARalpha in human HepG2 cells assessed as effect on LPL mRNA expression at 5 to 80 uM by quantitative PCR analysis. Format: functional, cell-based.
For assay [25] the target is unchanged. The assay is described as follows: Agonist activity at PPARalpha in human HepG2 cells assessed as down-regulation of SCD1 mRNA expression at 80 uM by quantitative PCR analysis. Format: functional, cell-based.
The target is the same in assay [26]. The assay is described as follows: Agonist activity at PPARalpha in human HepG2 cells assessed as down-regulation of SREBP1c mRNA expression at 80 uM by quantitative PCR analysis. Format: functional, cell-based.
Assay [27] shares this target. The experiment in a line: Agonist activity at PPARalpha in human HepG2 cells assessed as up-regulation of ACOX mRNA level at 80 uM by quantitative PCR analysis. It counts as functional, cell-based.

Activity calls are given as the source filed them. The rule behind the calls is not given here.

In general, EC50 refers to the midpoint of the concentration-response curve. Consider `CC(C)(Oc1ccc(C(=O)c2ccc(Cl)cc2)cc1)C(=O)O` [FENOFIBRIC ACID], for which the Activity result (in assay [1]; in the assay with HepG2 [4]) was “Dose-dependent effect” in each case. Besides, in [2], the half-maximal effective concentration (EC50) came out at 4.5 µM. For the same compound, the result in assay [3] was Active.
`C[C@H]1[C@H](C)CC[C@]2(C(=O)O)CC[C@]3(C)C(=CC[C@@H]4[C@@]5(C)CC[C@H](O)C(C)(C)[C@@H]5CC[C@]43C)[C@H]12` [URSOLIC ACID]: the Activity was 259% in assay [5]; “Dose-dependent effect” in assay [6]; 214% in assay [8]; 46% in [9]; 23.5% with HepG2 [10]; 38.8% with HepG2 [11]. Moreover, the Activity in the assay with HepG2 [12] worked out at 44.7%; in the assay with HepG2 [13], 11%; in the assay with HepG2 [14] it was 18.9%; in the assay on HepG2 [15] it was 26.5%; in the assay with HepG2 [16] it was 108.7%; in assay [17], 185%. Also, the Activity in assay [18] came out at 134%; in assay [19] it was 156%; in assay [20] it was 195%; in assay [22], 1020%; in assay [23] it was 23%; in assay [25] it was 15%. The Activity in assay [26] came out at 28%; in assay [27] it was 24%. Besides, the 50% effective concentration (EC50) in assay [7] came out at 41.3 µM. Moreover, the outcome in assay [1], in [3] and in assay [24] was inactive. For the same compound, in [21], the outcome was Active.
